Here are results for 20 compounds from patent publication US9265253B2, “Use of macrocyclic picolinamides as fungicides” (DOW AGROSCIENCES LLC, priority 2013, dated 2016).

Common to all, as to assay type: in vivo
The test system of test [1] is Leptosphaeria nodorum. Kind of test: Wheat Glume Blotch (LEPTNO) disease control. Conditions: 1 Day Protectant; for pest or weed control at 100 ppm: Parastagonospora nodorum, topical, 24 h, read-out: Disease Control LEPTNO 1 DP. The protocol:
Technical grades of materials were dissolved in acetone, which were then mixed with nine volumes of water containing 110 ppm Triton X-100. The fungicide solutions were applied onto wheat seedlings using an automated booth sprayer to run-off. All sprayed plants were allowed to air dry prior to further handling. All fungicides were evaluated using the aforementioned method for their activity vs. all target diseases. Wheat leaf blotch and brown rust activity were also evaluated using track spray applications, in which case the fungicides were formulated as EC formulations, containing 0.1% Trycol 5941 in the spray solutions. Wheat plants (variety Yuma) were grown from seed in a greenhouse in 50% mineral soil/50% soil-less Metro mix until the first leaf was fully emerged, with 7-10 seedlings per pot. These plants were inoculated with an aqueous spore suspension of Septoria tritici either prior to or after fungicide treatments. After inoculation the plants were kept in 100% relative humidity (one day in a dark dew chamber followed by two to three days in a lighted dew chamber at 20° C.) to permit spores to germinate and infect the leaf. The plants were then transferred to a greenhouse set at 20° C. for disease to develop. When disease symptoms were fully expressed on the 1st leaves of untreated plants, infection levels were assessed on a scale of 0 to 100 percent disease severity. Percent disease control was calculated using the ratio of disease severity on treated plants relative to untreated plants. Wheat plants (variety Yuma) were grown from seed in a greenhouse in 50% mineral soil/50% soil-less Metro mix until the first leaf was fully emerged, with 7-10 seedlings per pot. These plants were inoculated with an aqueous spore suspension of Leptosphaeria nodorum 24 hr after fungicide treatments. After inoculation the plants were kept in 100% relative humidity (one day in a dark dew chamber followed by two days in a lighted dew chamber at 20° C.) to permit spores to germinate and infect the leaf. The plants were then transferred to a greenhouse set at 20° C. for disease to develop. Fungicide formulation, application and disease assessment followed the procedures as described in the Example A.

The test system of test [2] is Alternaria solani. Kind of test: Tomato Early Blight (ALTESO) disease control. The conditions noted are these: 1 Day Protectant; for pest or weed control at 100 ppm: Alternaria solani, topical, 24 h, read-out: Disease Control ALTESO 1 DP. The protocol:
Technical grades of materials were dissolved in acetone, which were then mixed with nine volumes of water containing 110 ppm Triton X-100. The fungicide solutions were applied onto wheat seedlings using an automated booth sprayer to run-off. All sprayed plants were allowed to air dry prior to further handling. All fungicides were evaluated using the aforementioned method for their activity vs. all target diseases. Wheat leaf blotch and brown rust activity were also evaluated using track spray applications, in which case the fungicides were formulated as EC formulations, containing 0.1% Trycol 5941 in the spray solutions. Wheat plants (variety Yuma) were grown from seed in a greenhouse in 50% mineral soil/50% soil-less Metro mix until the first leaf was fully emerged, with 7-10 seedlings per pot. These plants were inoculated with an aqueous spore suspension of Septoria tritici either prior to or after fungicide treatments. After inoculation the plants were kept in 100% relative humidity (one day in a dark dew chamber followed by two to three days in a lighted dew chamber at 20° C.) to permit spores to germinate and infect the leaf. The plants were then transferred to a greenhouse set at 20° C. for disease to develop. When disease symptoms were fully expressed on the 1st leaves of untreated plants, infection levels were assessed on a scale of 0 to 100 percent disease severity. Percent disease control was calculated using the ratio of disease severity on treated plants relative to untreated plants. Tomato plants (variety Outdoor girl) were propagated in soil-less Metro mix, with each pot having one plant, and used when 12 to 14 days old. Test plants were inoculated with an aqueous spore suspension of Alternaria solani 24 hr after fungicide treatments. After inoculation the plants were kept in 100% relative humidity (one day in a dark dew chamber followed by two to three days in a lighted dew chamber at 20° C.) to permit spores to germinate and infect the leaf. The plants were then transferred to a growth room at 22° C. for disease to develop. Fungicide formulation, application and disease assessment on the sprayed leaves followed the procedures as described in the Example A.

The subject of test [3] is Glomerella lagenarium; Anamorph: Colletotrichum lagenarium. Kind of test: Cucumber Anthracnose (COLLLA) disease control. Conditions: 1 Day Protectant; for pest or weed control at 100 ppm: Colletotrichum orbiculare, topical, 24 h, read-out: Disease Control COLLLA 1 DP. How it is done:
Technical grades of materials were dissolved in acetone, which were then mixed with nine volumes of water containing 110 ppm Triton X-100. The fungicide solutions were applied onto wheat seedlings using an automated booth sprayer to run-off. All sprayed plants were allowed to air dry prior to further handling. All fungicides were evaluated using the aforementioned method for their activity vs. all target diseases. Wheat leaf blotch and brown rust activity were also evaluated using track spray applications, in which case the fungicides were formulated as EC formulations, containing 0.1% Trycol 5941 in the spray solutions. Wheat plants (variety Yuma) were grown from seed in a greenhouse in 50% mineral soil/50% soil-less Metro mix until the first leaf was fully emerged, with 7-10 seedlings per pot. These plants were inoculated with an aqueous spore suspension of Septoria tritici either prior to or after fungicide treatments. After inoculation the plants were kept in 100% relative humidity (one day in a dark dew chamber followed by two to three days in a lighted dew chamber at 20° C.) to permit spores to germinate and infect the leaf. The plants were then transferred to a greenhouse set at 20° C. for disease to develop. When disease symptoms were fully expressed on the 1st leaves of untreated plants, infection levels were assessed on a scale of 0 to 100 percent disease severity. Percent disease control was calculated using the ratio of disease severity on treated plants relative to untreated plants. Cucumber seedlings (variety Bush Pickle) were propagated in soil-less Metro mix, with each pot having one plant, and used in the test when 12 to 14 days old. Test plants were inoculated with an aqueous spore suspension of Colletotrichum lagenarium 24 hr after fungicide treatments. After inoculation the plants were kept in a dew room at 22° C. with 100% relative humidity for 48 hr to permit spores to germinate and infect the leaf. The plants were then transferred to a growth room set at 22° C. for disease to develop. Fungicide formulation, application and disease assessment on the sprayed leaves followed the procedures as described in the Example A.

In the case of `COc1ccnc(C(=O)N[C@H]2CCC[C@H](CCF)[C@@H](OCC(C)C)[C@H](C)OC2=O)c1OCOC(C)=O` [Compound F128, ((2-(((3S,7R,8R,9S)-7-(2-fluoroethyl)-8-isobutoxy-9-methyl-2-oxooxonan-3-yl)carbamoyl)-4-methoxypyridin-3-yl)oxy)methyl acetate], the pest or weed control at 100 ppm in test [1], in test [2] and in test [3] was 80 to 100% in each case.
On to `CCOCC(=O)OCOc1c(OC)ccnc1C(=O)N[C@H]1CCC[C@H](CCF)[C@@H](OCC(C)C)[C@H](C)OC1=O` [Compound F181], for which the pest or weed control at 100 ppm in test [1], in test [2] and in test [3] was 80 to 100% each time.
Regarding `COc1ccnc(C(=O)N[C@H]2CCC[C@H](Cc3ccccc3)[C@@H](OCC(C)C)[C@H](C)OC2=O)c1OCOC(=O)C(C)C` [Compound F151], the pest or weed control at 100 ppm in test [1], in test [2] and in test [3] was 80 to 100% each time.
On to `COc1ccnc(C(=O)N[C@H]2CCC[C@H](Cc3ccc(F)cc3)[C@@H](OCC3CC3)[C@H](C)OC2=O)c1OC(C)=O` [Compound F67], for which the pest or weed control at 100 ppm in test [1], in test [2] and in test [3] was 80 to 100% each time.
As to `CCO[C@@H]1[C@@H](Cc2ccccc2)CCC[C@H](NC(=O)c2nccc(OC)c2OC(C)=O)C(=O)O[C@H]1C` [Compound F87], the pest or weed control at 100 ppm in test [1], in test [2] and in test [3] was 80 to 100% in each case.
Regarding `COc1ccnc(C(=O)N[C@H]2CCC[C@H](Cc3ccc(F)cc3F)[C@@H](OC(=O)c3ccco3)[C@H](C)OC2=O)c1OCOC(=O)C(C)C` [Compound F157], the pest or weed control at 100 ppm in test [1], in test [2] and in test [3] was 80 to 100% throughout.
In the case of `CCOCC(=O)OCOc1c(OC)ccnc1C(=O)N[C@H]1CCC[C@H](Cc2ccc(F)cc2F)[C@@H](OC(=O)c2ccco2)[C@H](C)OC1=O` [Compound F193], the pest or weed control at 100 ppm in test [1], in test [2] and in test [3] was 80 to 100% each time.
With `CCCO[C@@H]1[C@@H](Cc2ccccc2)CCC[C@H](NC(=O)c2nccc(OC)c2OCOC(=O)COCC)C(=O)O[C@H]1C` [Compound F174], the pest or weed control at 100 ppm in test [1], in test [2] and in test [3] was 80 to 100% in each case.
Consider `CCCO[C@@H]1[C@@H](CCC(C)C)CCC[C@H](NC(=O)c2nccc(OC)c2OCOC(C)=O)C(=O)O[C@H]1C` [Compound F92], for which the pest or weed control at 100 ppm in test [1], in test [2] and in test [3] was 80 to 100% each time.
With `CCCO[C@@H]1[C@@H](Cc2ccccc2)CCC[C@H](NC(=O)c2nccc(OC)c2OC(C)=O)C(=O)O[C@H]1C` [Compound F88], the pest or weed control at 100 ppm in test [1], in test [2] and in test [3] was 80 to 100% in each case.
For the compound `COc1ccnc(C(=O)N[C@H]2CCC[C@H](Cc3ccccc3)[C@@H](OCC(C)C)[C@H](C)OC2=O)c1OCOC(C)=O` [Compound F106], the pest or weed control at 100 ppm in test [1], in test [2] and in test [3] was 80 to 100% in each case.
Consider `CCCO[C@@H]1[C@@H](Cc2ccccc2)CCC[C@H](NC(=O)c2nccc(OC)c2OCOC(C)=O)C(=O)O[C@H]1C` [Compound F109], for which the pest or weed control at 100 ppm in test [1], in test [2] and in test [3] was 80 to 100% in each case.
Take `CCCO[C@@H]1[C@@H](CCC(C)C)CCC[C@H](NC(=O)c2nccc(OC)c2OC(C)=O)C(=O)O[C@H]1C` [Compound F64]: the pest or weed control at 100 ppm in test [1], in test [2] and in test [3] was 80 to 100% throughout.
On to `COc1ccnc(C(=O)N[C@H]2CCC[C@H](CC3CCCC3)[C@@H](OCC3CC3)[C@H](C)OC2=O)c1OCOC(C)=O` [Compound F117], for which the pest or weed control at 100 ppm in test [1], in test [2] and in test [3] was 80 to 100% in each case.
`COCC[C@H]1CCC[C@H](NC(=O)c2nccc(OC)c2OCOC(C)=O)C(=O)O[C@@H](C)[C@@H]1Oc1ccccc1` [Compound F130]: the pest or weed control at 100 ppm lay in the range of 80 to 100% in test [1], 0 to 80% in test [2] and 80 to 100% in test [3].
For the compound `COCC[C@H]1CCC[C@H](NC(=O)c2nccc(OC)c2OC(C)=O)C(=O)O[C@@H](C)[C@@H]1Oc1ccccc1` [Compound F78], the figures for the pest or weed control at 100 ppm in test [1], in test [2] and in test [3] were 80 to 100%, 0 to 80% and 80 to 100%, respectively.
Regarding `C=C[C@H]1CCC[C@H](NC(=O)c2nccc(OC)c2OC(C)=O)C(=O)O[C@@H](C)[C@@H]1Oc1ccccc1` [Compound F86], the pest or weed control at 100 ppm lay within 80 to 100% in test [1], 0 to 80% in test [2] and 80 to 100% in test [3].
With `COc1ccnc(C(=O)N[C@H]2CCC[C@H](Cc3ccc(F)cc3)[C@@H](OCC3CC3)[C@H](C)OC2=O)c1OCOC(C)=O` [Compound F98], the “Disease Control LEPTNO 1 DP” value in test [1] (100 ppm) was “A (80-100)”. In test [2] (100 ppm), the “Disease Control ALTESO 1 DP” value is “A (80-100)”. For the same compound, the “Disease Control COLLLA 1 DP” value in test [3] (100 ppm) is recorded as “A (80-100)”.
As to `CCOCC(=O)OCOc1c(OC)ccnc1C(=O)N[C@H]1CCC[C@H](Cc2ccc(F)cc2)[C@@H](OCC2CC2)[C@H](C)OC1=O` [Compound F164], the pest or weed control at 100 ppm in test [1], in test [2] and in test [3] was 80 to 100% each time.
Take `CCOCC(=O)OCOc1c(OC)ccnc1C(=O)N[C@H]1CCC[C@H](Cc2ccccc2)[C@@H](OCC(C)C)[C@H](C)OC1=O` [Compound F172]: the pest or weed control at 100 ppm in test [1], in test [2] and in test [3] was 80 to 100% each time.
